Measurements: patent US8501759B2, “Use of fibrates” (Fournier Laboratories Ireland Limited, priority 2009, dated 2013)

Key:
[1] = test system: patients with sleep apnea syndrome; experiment: Overnight sleep study: apnea/hypopnea recording (CID 102) in the 1-month placebo-controlled study; assay type: in vivo, human
Text: This study comprised 2 phases: • a run-in period of 1 to 5 weeks, on usual diet, • a treatment period of at least 4 weeks (40 days maximum).
(§1) Primary variables: number of obstructive apneas, of central apneas, of mixed apneas, total number of apneas, index of apnea per sleep hour, total number of hypopneas, index of hypopnea per sleep hour, index of apnea/hypopnea per sleep hour, total number of desaturations per sleep hour (with a variation of at least 3-4%), and percentage of time spent with SpO2<90%.
(§2) Variables assessed as complementary analyses: cumulated duration of apnea, mean duration of apnea, duration of the longest apnea, number of non cortical micro-awakening indicators related to respiratory events/hour, number of non cortical micro-awakening indicators related to respiratory events, oxygen saturation in blood measured by pulse oximetry (SpO2) in wake state, mean SpO2 on sleep recording, minimum value of SpO2, percentage of time spent with SpO2<80%, percentage of time spent with SpO2<85%, number of tachycardia, mean duration of tachycardia, number of bradycardia, mean duration of bradycardia, mean pulse rate, standard deviation pulse rate, minimum pulse rate, maximum pulse rate, decrease in daytime sleepiness assessed by the ESS, vigilance tests (reflexive visually guided saccades, antisaccades and sustained attention test).
Throughout the night, respiration was monitored by a sound pressure transducer placed on the suprasternal notch facing the trachea or thoracic strain gauges (model CID 102) (Van Surell C, Lemaigre D, Leroy M, Foucher A, Hagenmuller M P, Raffestin B. Evaluation of an ambulatory device, CID 102, in the diagnosis of obstructive sleep apnea syndrome. Eur Respir J. 1995; 8(5):795-800).
Apnea is defined as an absence of inspiratory flow for at least 10 seconds.
Hypopnea is defined as a 50% to 80% reduction in airflow combined with 3-4% oxygen desaturations.
Sleep apneas are classified as obstructive or central.
Central apneas are defined as total absence of inspiratory flow and chest/abdominal movement during the period of absence of inspiration flow.
Obstructive sleep apneas are defined by a decrease in airflow of more than 80% in the presence of paradoxical movements of the ribcage and abdomen. Similar to AHI, the obstructive and central apneas were based on definitions that require events to be associated with 3-4% desaturations.

[2] = test system: patients with sleep apnea syndrome; experiment: Overnight sleep study: pulse oximetry (SpO2, desaturations); assay type: in vivo, human
Text: as §1, §2
Desaturation episodes were the markers of respiratory impairment. All-night recordings of arterial oxygen saturation were obtained using a cardio-respiratory pulse oximeter attached to the finger (SpO2).
Severity of obstructive sleep apnea was measured by the number of falls in SpO2 of more than 3-4% per hour of sleep. The equipment automatically selected the desaturation threshold (3 or 4%) according to the baseline SpO2 value. To further define the severity of OSA, the lowest SpO2 point and the percentage of time spent with SpO2<90% was determined.

[3] = test system: patients with sleep apnea syndrome; experiment: Epworth Sleepiness Scale (ESS); assay type: in vivo, human; settings: fenofibrate group, at baseline and at end of treatment; global score 0 to 24
Text: as §2
This scale is the most widely index used to measure sleep apnea subjectively. It is a self-administered questionnaire that asks patients their likelihood of falling asleep in 8 situations ranked from 0 (no chance of dozing), 1 (slight chance of dozing), 2 (moderate chance of dozing) to 3 (high chance of dozing). The numbers are then added together to obtain a global score between 0 and 24. A value of 10 or below is considered normal.

[4] = test system: patients with sleep apnea syndrome; experiment: Laboratory efficacy variables (lipids, glucose, fibrinogen, insulin); assay type: in vivo, human
Experimental: Secondary variables: % change from baseline (V2) in fasting and post-prandial TG, total cholesterol (TC), high-density lipoprotein cholesterol (HDL-C), fasting plasma glucose (FPG), fibrinogen and insulin.
TC, TG, HDL-C, glucose, fibrinogen and insulin were measured at inclusion and during the 2 hospital admissions before a lipid rich breakfast. Insulin was also measured before the lipid rich breakfast, each morning following the sleep study.
Post-prandial TG were measured 4 hours after a lipid rich breakfast.

[5] = 160 mg tablet administered with food; cited from earlier work
[6] = test system: patients with sleep apnea syndrome; experiment: Sustained attention test; settings: end of treatment (V3)
[7] = test system: patients with sleep apnea syndrome; experiment: Safety (adverse events, safety laboratory, vital signs)
[8] = ANCOVA on Log-transformed V3 values, relative difference
[9] = end of treatment (V3), ANCOVA on non-transformed data
[10] = fenofibrate 145 mg group, end of treatment (V3)
[11] = end of treatment (V3), ANCOVA on Log-transformed data, relative difference
[12] = end of treatment (V3), ANCOVA on non-transformed data, absolute difference
[13] = fenofibrate group, treatment period

## CC(C)OC(=O)C(C)(C)Oc1ccc(C(=O)c2ccc(Cl)cc2)cc1 [Fenofibrate, fenofibrate]
[1]; [8]
  Number of central apneas, Fenofibrate-Placebo at end of treatment, Estimate: −55%
  Number of hypopneas, Fenofibrate-Placebo at end of treatment, Estimate: −46%
  Number of mixed apneas, Fenofibrate-Placebo at end of treatment, Estimate: −25%
  Number of obstructive apneas, Fenofibrate-Placebo at end of treatment, Estimate: −44%
[1]; ANCOVA on Log-transformed V3 values, relative difference, minus = improvement
  Number of apneas, Fenofibrate-Placebo at end of treatment, Estimate: −35%
[1]; end of treatment (V3), ANCOVA on Log-transformed data
  Cumulated duration of apnea, Fenofibrate-Placebo Estimate: −31%
[1]; [9]
  Number of non cortical micro-awakening, Fenofibrate-Placebo Estimate: −75.7
[1]; [10]
  Cumulated duration of apnea, End (V3) (median): 4.5 min
  Duration of the longest apnea, End (V3) (median): 23.5 s
  Mean duration of apnea, End (V3) (median): 13.5 s
  Number of central apneas, End (V3) (median): 1.0
  Number of hypopneas, End (V3) (median): 63.0
  Number of mixed apneas, End (V3) (median): 1.0
  Number of non cortical micro-awakening, End (V3) (median): 128.0
  Number of obstructive apneas, End (V3) (median): 15.0
[1]; fenofibrate 145 mg group, end of treatment (V3), total number during sleep recording
  Number of apneas, End (V3) (median): 20.5
[1]; fenofibrate 145 mg group, end of treatment (V3), indicators related to respiratory events
  Non cortical micro-awakening per hour, End (V3) (median): 18.0
[2]; [8]
  Number of desaturations, Fenofibrate-Placebo at end of treatment, Estimate: −23%
[2]; [9]
  Mean of SPO2 on recording, Fenofibrate-Placebo Estimate: 1.1%
  Minimum value of SpO2, Fenofibrate-Placebo Estimate: 0.4%
[2]; [10]
  Mean of SPO2 on recording, End (V3) (median): 94.0%
  Minimum value of SpO2, End (V3) (median): 82.0%
  Number of desaturations, End (V3) (median): 130.0
  Percentage of time with SpO2 < 90%, End (V3) (median): 3.5%
  Percentage time spent with SpO2 < 80%, End (V3) (median): 0.0%
  Percentage time spent with SpO2 < 85%, End (V3) (median): 0.0%
  SpO2 in wake state, End (V3) (median): 95.0%
[3]
  median of the ESS: 8.5
[4]; end of treatment
  effect on fasting plasma glucose (FPG): no effect
[4]; [11]
  HDL-Cholesterol, Fenofibrate-Placebo Estimate: 2%
  Post-Prandial Triglycerides, Fenofibrate-Placebo Estimate: −26%
[4]; [12]
  Fasting Plasma Glucose, Fenofibrate-Placebo Estimate: 0.2 mmol/L
  Fibrinogen, Fenofibrate-Placebo Estimate: -1.7 µmol/L
  Insulin, Fenofibrate-Placebo Estimate: 12.1 pmol/L
  Total Cholesterol, Fenofibrate-Placebo Estimate: -0.8 mmol/L
[4]; [10]
  Fasting Plasma Glucose, End (V3) (median): 5.45 mmol/L
  Fasting Triglycerides, End (V3) (median): 2.00 mmol/L
  Fibrinogen, End (V3) (median): 8.82 µmol/L
  Insulin, End (V3) (median): 94.4 pmol/L
  Total Cholesterol, End (V3) (median): 4.58 mmol/L
[4]; fenofibrate 145 mg group, end of treatment (V3), 4 hours after a lipid rich breakfast
  Post-Prandial Triglycerides, End (V3) (median): 3.27 mmol/L
[5]
  increase of exposure to fenofibric acid with food compared to fasting conditions: 35%
[6]; ANCOVA on Log-transformed data, relative difference
  Maximum latency all sarters, Fenofibrate-Placebo Estimate: 7%
[6]; ANCOVA on non-transformed data, absolute difference
  Mean latency all sarter, Fenofibrate-Placebo Estimate: 3.6 ms
[6]; fenofibrate 145 mg group
  Maximum latency all sarters, End (V3) (median): 750.0 ms
  Minimum latency all sarters, End (V3) (median): 295.0 ms
  Percent false responses all sarters, End (V3) (median): 1.1
  Percent omissions all sarters, End (V3) (median): 0.0
  Standard Deviation latency all sarters, End (V3) (median): 98.0 ms
[6]; fenofibrate 145 mg group, mean of the 5 tests
  Mean latency all sarter, End (V3) (median): 409.7 ms
[7]; 4-week treatment, 145 mg once daily
  tolerability: well tolerated
[7]; either treatment group
  changes in mean values of pulse rate, DBP or SBP between baseline and end of treatment: no meaningful changes
[7]; end of treatment
  other safety biological variables (ALT, AST, CK), fenofibrate vs placebo: did not differ between the 2 groups
[7]; fenofibrate group
  Median % change at end of treatment from baseline in RBC: −2.7%
  Median % change at end of treatment from baseline in WBC: −11.6%
  Median % change at end of treatment from baseline in hematocrit: −3.2%
  Median % change at end of treatment from baseline in hemoglobin: −3.8%
[7]; [13]
  AEs reported (kinds): bloating (n=1), rash (n=1), allergic rhinitis (n=1), metabolic syndrome (SAE, n=1), type 2 diabetes (n=1), and cystitis (n=1)
  number of AEs reported: 6
  number of patients with AEs: 3
[7]; fenofibrate group, hospitalized for assessment of metabolic syndrome, not related to study treatment
  number of SAE reported during the treatment period: 1
[7]; fenofibrate group, p=0.007 vs placebo
  Median % change at end of treatment from baseline in platelets: +4.7%
[7]; fenofibrate group, p=0.015 vs placebo
  Median % change at end of treatment from baseline in creatinine: +5.9%
[7]; in vivo
  mean values of body weight and BMI at end of treatment compared to baseline: remained roughly unchanged
[7]; treatment period
  AEs considered as related to study treatment: None
